# Measured values from ChEMBL document CHEMBL2396557, “Functional consequences of retro-inverso isomerization of a miniature protein inhibitor of the p53-MDM2 interaction” (Bioorg Med Chem, 2013).
# The source made the active and inactive calls. No cut-off for these calls is given here.
# What was measured:
# [1] = target: T1, E3 ubiquitin-protein ligase Mdm2 (Homo sapiens, UniProt Q00987); test: Binding affinity to MDM2 (25 to 109 amino acids) (unknown origin) after 30 mins by surface plasmon resosnance analysis
# Target sequence in this assay (Q00987 whole entry, the tested form may be a part): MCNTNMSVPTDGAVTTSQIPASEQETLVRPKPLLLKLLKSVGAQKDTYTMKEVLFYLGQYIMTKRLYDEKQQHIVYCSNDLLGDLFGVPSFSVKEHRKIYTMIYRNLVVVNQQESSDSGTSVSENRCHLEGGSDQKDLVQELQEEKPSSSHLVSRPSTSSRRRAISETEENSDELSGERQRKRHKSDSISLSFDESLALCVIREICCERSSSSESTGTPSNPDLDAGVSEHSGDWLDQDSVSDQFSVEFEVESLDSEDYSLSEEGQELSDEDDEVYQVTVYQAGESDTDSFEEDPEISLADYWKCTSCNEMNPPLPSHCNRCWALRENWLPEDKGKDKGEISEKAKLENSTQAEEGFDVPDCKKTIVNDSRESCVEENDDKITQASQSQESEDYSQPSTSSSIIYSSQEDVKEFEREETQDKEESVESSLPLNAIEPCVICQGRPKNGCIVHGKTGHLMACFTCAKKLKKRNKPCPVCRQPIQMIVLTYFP
# [2] = target: T1, E3 ubiquitin-protein ligase Mdm2; test: Binding affinity to MDM2 (25 to 109 amino acids) (unknown origin) at 100 uM after 30 mins by surface plasmon resosnance analysis
# Target sequence in this assay (Q00987 whole entry, looked up, the tested form may be a part): as the sequence (Q00987 whole entry, the tested form may be a part) above
Kd [1],Activity [2],Compound
18.1 µM,–,CC(C)C[C@@H](NC(=O)[C@@H](CCC(N)=O)NC(=O)[C@H](N)Cc1cnc[nH]1)C(=O)N[C@@H]1CSSC[C@H]2NC(=O)[C@@H](CCCCN)NC(=O)[C@@H](C)NC(=O)[C@H]3CCCN3C(=O)[C@@H](CCC(=O)O)NC(=O)[C@@H]([C@H](C)O)NC(=O)[C@@H](Cc3ccccc3)NC(=O)[C@@H](CC(C)C)NC(=O)[C@@H](CSSC[C@H](C(=O)O)NC(=O)[C@@H](CC(N)=O)NC2=O)NC(=O)[C@@H](Cc2ccc(O)cc2)NC(=O)[C@@H](Cc2c[nH]c3ccccc23)NC(=O)[C@@H](CCCNC(=N)N)NC1=O
–,inactive,CC(C)C[C@@H]1NC(=O)[C@@H]2CSSC[C@@H](C(=O)O)NC(=O)[C@H](CC(N)=O)NC(=O)[C@H](CSSC[C@H](NC(=O)[C@H](CC(C)C)NC(=O)[C@H](CCC(N)=O)NC(=O)[C@@H](N)Cc3cnc[nH]3)C(=O)N[C@@H](CCCNC(=N)N)C(=O)N[C@@H](Cc3c[nH]c4ccccc34)C(=O)N[C@@H](Cc3ccc(O)cc3)C(=O)N2)NC(=O)[C@H](CCCCN)NC(=O)[C@H](C)NC(=O)[C@@H]2CCCN2C(=O)[C@H](CCC(=O)O)NC(=O)[C@H]([C@@H](C)O)NC(=O)[C@H](Cc2ccccc2)NC1=O
